For series [1], the system named is 5′-FAM-AT11-L0-TAMRA-3′ (DNA, G4) TGGTGGTGGTTGTTGGGTGGTGGTGGT
Nature of the series: FRET melting. To be noted: 65 mM KCl, 20 mM potassium phosphate, pH 6.9, 0.2 µM DNA.

Series [2] concerns 5′-Cy5-AT11-L0 (DNA, G4) TGGTGGTGGTTGTTGGGTGGTGGTGGT
Nature of the series: fluorescence titration (Cy5 quenching), two-site model. The note with it: 65 mM KCl, 20 mM potassium phosphate; pH 6.9; 1 µM DNA; site 1 of 2; apparent.

For series [3] the test system is unchanged. The series can be described thus: fluorescence titration (Cy5 quenching), Hill model. To be noted: 65 mM KCl, 20 mM potassium phosphate; pH 6.9; 1 µM DNA; apparent.
Series [4] addresses T1, nucleolin RBD1,2 (NCL RBD1,2) (UniProt P19338 307-466). Nature of the series: fluorescence titration (Cy5 quenching); no ligand; two-site model, KD1; aptamer pre-annealed in 20 mM potassium phosphate pH 6.9, 65 mM KCl (95 C 10 min, ice 10 min); titration temperature not given in the material. To be noted: protein: recombinant; label: 5'-Cy5; parallel G4, pre-folded in K+.
For series [5], the target named is T1, nucleolin RBD1,2 (NCL RBD1,2). Nature of the series: fluorescence titration (Cy5 quenching); ligand C8; two-site model, KD1; aptamer pre-annealed in 20 mM potassium phosphate pH 6.9, 65 mM KCl (95 C 10 min, ice 10 min); titration temperature not given in the material. To be noted: protein: recombinant; label: 5'-Cy5; parallel G4, pre-folded in K+.
Series [6] has the same target. The series can be described thus: fluorescence titration (Cy5 quenching); ligand PhenDC3; two-site model, KD1; aptamer pre-annealed in 20 mM potassium phosphate pH 6.9, 65 mM KCl (95 C 10 min, ice 10 min); titration temperature not given in the material. To be noted: protein: recombinant; label: 5'-Cy5; parallel G4, pre-folded in K+.

T1 sequence (P19338 307-466): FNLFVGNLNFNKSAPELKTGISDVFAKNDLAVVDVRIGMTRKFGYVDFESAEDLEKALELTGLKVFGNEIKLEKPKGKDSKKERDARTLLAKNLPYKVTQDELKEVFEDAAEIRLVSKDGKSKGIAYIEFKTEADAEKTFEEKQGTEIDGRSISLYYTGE

A word on the ΔTm: it is the shift of the melting midpoint relative to a reference. Turning to `C[n+]1ccc(-c2c3nc(c(-c4cc[n+](C)cc4)c4ccc([nH]4)c(-c4cc[n+](C)cc4)c4nc(c(-c5cc[n+](C)cc5)c5ccc2[nH]5)C=C4)C=C3)cc1`, the thermal shift (ΔTm) in series [1] (1 µM compound (5 eq)) was found to be 28 °C.

As for `C[C@@H]1C[C@H]2[C@@H]3CCC4=CC(=O)C=C[C@]4(C)[C@@]3(F)[C@@H](O)C[C@]2(C)[C@@]1(O)C(=O)CO`, the ΔTm in series [1] (0.2 µM compound (1 eq)) was 0.1 °C.

For the molecule `C[n+]1cc(NC(=O)c2ccc3ccc4ccc(C(=O)Nc5cc6ccccc6[n+](C)c5)nc4c3n2)cc2ccccc21`, in series [2], the KD1 amounted to 329 pM. Further, the ΔTm in series [1] (1 µM compound (5 eq)) was > 30 °C.

With `NCCOc1cc(C(=O)Nc2cc(OCCN)c3ccccc3n2)nc(C(=O)Nc2cc(OCCN)c3ccccc3n2)c1`, in series [1] (1 µM compound (5 eq)), the ΔTm stood at 26.9 °C.

`CN(C)c1ccc(Nc2c3ccc(NC(=O)CCN4CCCC4)cc3nc3cc(NC(=O)CCN4CCCC4)ccc23)cc1`: the ΔTm in series [1] (1 µM compound (5 eq)) was 20.3 °C.

In the case of `CN(C)c1ccc2cc3ccc(N(C)C)cc3[n+](CCCCCCCCNC(=O)c3ccc(I)cc3)c2c1`, the ΔTm in series [1] (1 µM compound (5 eq)) was found to be 19.6 °C. Further, in series [3], the KD worked out at 22100 pM.

B1: 5'-Cy5-AT11-L0 (structured_DNA)
DNA: TGGTGGTGGTTGTTGGGTGGTGGTGGT
By Kd is commonly meant the equilibrium constant for the complex coming apart. Take B1: the results for the dissociation constant (Kd) in series [4], in series [5] and in series [6] were 12 pM, 24 pM and 20 pM, respectively.
